On the set-up of series [1]: method as in PMID 41148120. Particulars: another study; cited from earlier work.
Another series deals with T1, S. cerevisiae ALS (Saccharomyces cerevisiae, UniProt P07342).
T1 construct: made in house; host or cells: E. coli BL21 (DE3), pET28a-ScILV2
Briefly: FAD cofactor reoxidation upon incubation with ALS. The class given is biochemical. Particulars: in contrast to accumulative inhibitors 2 and 3.

Another series concerns A. fumigatus. As to the kind of experiment: Inhibition of A. fumigatus growth. The class given is cell-based. Conditions: Aspergillus fumigatus.
Another series addresses T2, S. cerevisiae ALS P192S (Saccharomyces cerevisiae, UniProt P07342, P192S).
T2 construct: His6 (followed by a TEV protease site, pET28a) (N); made in house; host or cells: E. coli (inferred from the ScALS method)
As to the kind of experiment: biochemical. The class given is biochemical. On the procedure:
(§1) ALS biochemical assay (ScALS)
(§2) Saccharomyces cerevisiae acetohydroxyacid synthase (ScALS) lacking the N-terminal […]
(§3) Escherichia coli as an N-terminally His6-tagged protein. Assays (50 µL final volume) contained […]
(§4) adenine dinucleotide, 10 mM MgCl2, 1 mM DTT, 1% DMSO (± inhibitor) in 500 mM K2HPO4 buffer at pH 7.5. Following a 30 min pre-incubation of the enzyme and inhibitor in the reaction mixture at room temperature, reactions were initiated with the addition of pyruvate. ScALS assays were carried out at 30 °C for 60 min. The reaction was quenched with the addition of 5 µL of 10% H2SO4 (v/v in deionized water). Reactions were incubated at 60 °C at 800 rpm in an […]
(§5) to acetoin. Subsequently, the concentration of acetoin was determined by the addition of 7.5 µL 6 M NaOH, 25 µL 0.5% creatine (w/v in deionized water), and 25 µL 4% 1-naphthol (w/v in 2.5 M NaOH). This mixture was incubated at 60 °C at 800 rpm in an incubating microplate shaker for […]
(§6) 40 µL of this reaction mixture was transferred to a half area UV-star 96-well plate (Grenier) and the absorbance at 525 nm was measured on a Spark multimode plate reader (Tecan). The percent inhibition was calculated by the comparison of the signal to DMSO (0% […]
(§7) IC50 values were calculated from the dose response curves using Prism 9 (four parameter, variable slope). […]
(§8) Expression and purification of ScALS
(§9) S. cerevisiae ILV2 (the gene or ScALS) lacking the N-terminal mitochondrial-localization tag

The test system of another series is AfALS. Briefly: Intact protein mass spectrometry. It is filed as binding, Aspergillus fumigatus. Particulars: 10 μM, 30 min. From the text: We next characterized the structural basis for binding of 1 to ALS. Given the strained structure and the observed tight binding kinetics, we hypothesized that 1 may be binding covalently. Analysis of ALS from both AfALS and ScALS by intact protein mass spectrometry yielded traces with multiple proteoforms for both proteins. […] Limited proteolysis followed by peptide mapping localized the covalent attachment to the 239[…]258 peptide of ScALS with Lys251 and Asp252 (equivalent to Lys310 and Asp311 in AfALS) serving as the most likely attachment sites (Figure S7).

Series [2] can be described thus: physchem. Conditions: aqueous with cosolvent or surfactant or cyclodextrin, kinetic from dmso stock.
A short description of series [3]: physchem. Particulars: buffer, pH 7.4.
Series [4] can be described thus: Liver microsome stability, mouse. The class given is in vitro ADME. Conditions: mouse liver microsomes; read-out: Liver microsome t1/2 Mouse. Background: Liver microsomes are vesicles of endoplasmic reticulum, rich in cytochrome P450 enzymes.
Series [5] addresses T3, S. cerevisiae ALS wild type (Saccharomyces cerevisiae, UniProt P07342).
T3 construct: made in house; host or cells: E. coli BL21 (DE3), pET28a-ScILV2
As to the kind of experiment: ALS biochemical assay (ScALS), wild type. On the procedure: as §1, §2, §3, §4, §5, §6, §7, §8, §9

Series [6] is described as follows: Liver microsome stability, human. It is filed as in vitro ADME. Conditions: human liver microsomes; read-out: Liver microsome t1/2 Human.
The next series is described as follows: Plasma stability, human. The class given is in vitro ADME. Conditions: read-out: Plasma t1/2 Human.

Converted amounts (≈) assume the structure as drawn.

T2 sequence (P07342 58-687 P192S): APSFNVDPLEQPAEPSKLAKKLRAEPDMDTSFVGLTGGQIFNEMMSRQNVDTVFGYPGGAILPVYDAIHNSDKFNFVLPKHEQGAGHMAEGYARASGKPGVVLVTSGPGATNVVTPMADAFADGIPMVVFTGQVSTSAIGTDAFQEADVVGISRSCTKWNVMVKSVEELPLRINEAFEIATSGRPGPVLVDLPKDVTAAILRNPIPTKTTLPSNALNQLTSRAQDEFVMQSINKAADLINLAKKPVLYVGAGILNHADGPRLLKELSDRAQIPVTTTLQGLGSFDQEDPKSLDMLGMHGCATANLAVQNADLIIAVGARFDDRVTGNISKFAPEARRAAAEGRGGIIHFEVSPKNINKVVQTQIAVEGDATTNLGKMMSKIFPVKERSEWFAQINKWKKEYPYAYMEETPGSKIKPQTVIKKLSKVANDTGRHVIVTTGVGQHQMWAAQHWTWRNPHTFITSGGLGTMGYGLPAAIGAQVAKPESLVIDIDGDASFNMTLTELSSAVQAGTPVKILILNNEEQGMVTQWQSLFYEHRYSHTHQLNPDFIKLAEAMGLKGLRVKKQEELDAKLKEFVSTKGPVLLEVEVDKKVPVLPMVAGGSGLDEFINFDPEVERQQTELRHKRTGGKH
T3 sequence (P07342 58-687): as the sequence (P07342 58-687 P192S) above, with S135P counted along it
T1 sequence (P07342 58-687): as the sequence (P07342 58-687 P192S) above, with S135P counted along it

As to `CCCC1C(C)=CC2CC=CC3(C)C2C1C(=O)C31C(=O)NC(CCCO)C1=O` (centres unmarked) [compound 1], the herbicidal activity entry in [1] is on record as “modest herbicidal activity”. Also, the “FAD reoxidation upon treatment” value on S. cerevisiae ALS was “no indication of FAD reoxidation”. The EC50 (in general, the concentration needed to bring the measured effect to its halfway point) in the series with A. fumigatus (read-out: A. fumigatus growth inhibition EC50 (Figure 4A)) came to 700 ± 500 nM. Besides, the IC50 (in general, the point on the concentration scale where inhibition reaches its midpoint) in the series on A. fumigatus (read-out: A. fumigatus growth inhibition IC50) was found to be 700 nM; at S. cerevisiae ALS P192S, 66 ± 9 nM; in series [5] (recombinant ScALS, read-out: S. cerevisiae ALS IC50 Wild type) it was 15 ± 1 nM. The “shift in potency, P192S mutant ScALS compared to wild-type ScALS” value at S. cerevisiae ALS P192S worked out at 4 fold. Moreover, the “covalent modification of AfALS (intact mass shift)” value in the series with AfALS is on record as “mass shifts consistent with covalent addition”. Also, the solubility (kinetic) (usually the concentration staying in solution when a stock, usually in DMSO, is diluted into the medium) in the series “physchem [2]” came to 260 µM (≈ 100 µg/mL). The half-life in the series “physchem [3]” stood at 141 min; in series [4], 3 min; in series [6], 3 min; in “Plasma stability, human” it was 79 min. For the same compound, the “potency against ScALS compared with diastereomer 13” value in series [5] (Figure S6) was “significantly more potent”.

The values above are taken from article PMC12947280, “An Antifungal with a Novel Mechanism of Action Discovered via Resistance Gene-Guided Genome Mining” (ACS Central Science, 2026).
